Measurements: publication PMC3454369, “Functional Redundancy of Class I Phosphoinositide 3-Kinase (PI3K) Isoforms in Signaling Growth Factor-Mediated Human Neutrophil Survival” (PLoS ONE, 2012)
Where two headings read alike, the source gives them in different places.

Experiments:
Human neutrophils [1] = assay: rhGM-CSF-modulated human neutrophil apoptosis, annexin V/PI flow cytometry; type: cell-based; conditions: rhGM-CSF 10 ng/ml, 20 h
Description: To examine the effects of small molecule PI3K inhibitors on rhGM-CSF (10 ng/ml) -modulated apoptosis, neutrophils (5×10^6/ml) were re-suspended in Iscove’s modified Dulbecco medium (IMDM) supplemented with 10% autologous serum, 100 U/mL penicillin and 100 µg/mL streptomycin in non-tissue culture treated flat bottom Falcon Flexiwell plates in a humidified 5% CO2 atmosphere at 37°C.

[2] = tested on: PKB (Akt) phosphorylation; assay: Western blot for rhGM-CSF-induced PKB (Akt Ser473) phosphorylation in human neutrophils; type: cell-based; conditions: 20 min pre-incubation, rhGM-CSF 10 ng/ml 10 min
Description: Neutrophils were suspended at 5×10^6/ml and 0.5 ml aliquots were pre-incubated for 20 minutes with PI3K inhibitors at 37°C prior to treatment with GM-CSF 10 ng/ml for 10 min. The cells were washed with ice-cold phosphate-buffered saline and pelleted and resuspended in 50 µl of cold lysis buffer (20 mM Tris-HCl (pH 7.5), 150 mM NaCl, 1 mM EDTA, 1 mM EGTA, 1% Triton X-100, 2.5 mM sodium pyrophosphate, 1 mM β-glycerophosphate, 1 mM PMSF, 1 mM sodium fluoride, 2 mM sodium orthovanadate, 10 µg/ml leupeptin, 10 µg/ml aprotinin) and incubated on ice for 10 minutes. The Triton-insoluble fraction was pelleted by centrifugation at 10 000 g for 15 min at 4°C. The protein concentration of the supernatant was determined using a colorimetric assay (bicinchoninic acid; BCA, BIO Rad Laboratories). SDS sample buffer was added to each neutrophil lysate and heated to 99°C for 5 min. 30 µg of protein/well was loaded on to each 10% SDS-polyacrylamide gel and subjected to electrophoresis at 150 V and transferred to a PVDF Immobilon membrane using a semi-dry transfer system at 130 mA for 90 minutes. The membrane was blocked for 1 hour with 5% non-fat dry milk in Tris-HCl buffered saline containing 0.1% (w/v) Tween 20 then immunoblotted overnight at 4°C in TBS-Tween-20 with primary monoclonal antibody to total Akt rabbit mAb or Phospho-Akt (Ser^473) rabbit mAb (Cell Signaling Technology 40585 and 9272 respectively) at a dilution of 1∶1000 in TBS-Tween 20 with 5% Bovine Serum Albumin. The membrane was washed three times in TBS-Tween 20 and incubated with ECL HRP-conjugated donkey anti-rabbit IgG (Fab2 fragment; GE Healthcare) at a dilution of 1∶10 000 in TBS-Tween 20 for 1 hour at room temperature. Membranes were developed using ECL-Plus kit (GE Healthcare).
Figure 5 Combined inhibition of all Class IA PI3Ks abrogates rhGM-CSF mediated PKB phosphorylation. […] Western blots from the experiments describe in B. above were scanned and analyzed using the Aida Image Analyzer 3.27 software package. […]

[3] = tested on: Murine peripheral blood neutrophils; conditions: for Effect on rmGM-CSF cytoprotective (survival) effect in murine neutrophils: concentration-dependent; for Effect on constitutive murine neutrophil apoptosis: no rmGM-CSF, 8 h and 4 h
Human neutrophils [4] = assay: rhGM-CSF-modulated human neutrophil apoptosis, annexin V/PI flow cytometry; type: cell-based; conditions: no GM-CSF; 20 h (also 6 h); LY294002 10 µM
[5] = tested on: Peripheral blood neutrophils from exacerbating COPD patients; assay: Ex vivo apoptosis of peripheral blood neutrophils from patients with exacerbation of COPD, annexin V/PI flow cytometry; type: cell-based, human; conditions: ex vivo, 20 min pre-incubation, 20 hours culture
Human neutrophils [6] = assay: Morphologic analysis of human neutrophil apoptosis (light microscopy of cytospins); type: cell-based; conditions: rhGM-CSF 10 ng/ml, 20 h; for Cytoplasmic vacuolation of human neutrophils: light microscopy, PI-103 at 1 µM or above, LY294002 10 µM
p110γ [7] = target: T1, p110γ (Homo sapiens, UniProt P48736); assay: biochemical
Human neutrophils [8] = assay: fMLP-stimulated neutrophil oxidative burst (luminol/HRP chemiluminescence); type: cell-based; conditions: fMLP 100 nM
Description: All PI3K inhibitors were dissolved in dimethyl sulfoxide (DMSO) and stored at −20°C. […] The concentration response curves for NVS-PI3-3 and NVS-PI3-4 on the neutrophil respiratory burst generated as described in [10] are shown in Figure 2.  Figure 2 Effect of NVS-PI3-4 and NVS-PI3-3 on Neutrophil Oxidative Burst. Human neutrophils were suspended at 4×10^6/ml in HBSS at 37°C and either primed with TNFα 10 ng/ml or treated with vehicle control, prior to the addition of NVS-PI3-4 (A) or NVS-PI3-3 (B) at the indicated concentrations. […] Triangular symbols represent TNFα-primed cells; unprimed cells depicted by squares.

p110α [9] = target: T2, p110α (Homo sapiens, UniProt P42336); assay: biochemical
p110δ [10] = target: T3, p110δ (Homo sapiens, UniProt O00329); assay: biochemical
p110β = p110β (Homo sapiens, UniProt P42338); assay: biochemical
[11] = Cell accessibility of the inhibitor (footnote of Table 3); design: key: *: Poor cell accessibility; conditions: footnote mark at the inhibitor's name
PI3K Class I isoforms = tested on: PI3K Class I isoforms; design: method as in PMID 20179189; conditions: competitive inhibition; cited from earlier work
p110γ [12] = target: T1, p110γ; conditions: in vitro kinase assay; data compiled from published work; cited from earlier work
p110δ [13] = target: T3, p110δ; conditions: in vitro kinase assay; data compiled from published work; cited from earlier work
p110α [14] = target: T2, p110α; conditions: in vitro kinase assay; data compiled from published work; cited from earlier work
[15] = C57BL/6, rmGM-CSF 0.1 ng/ml, 8 hours

T3 sequence (O00329 whole entry, species assumed): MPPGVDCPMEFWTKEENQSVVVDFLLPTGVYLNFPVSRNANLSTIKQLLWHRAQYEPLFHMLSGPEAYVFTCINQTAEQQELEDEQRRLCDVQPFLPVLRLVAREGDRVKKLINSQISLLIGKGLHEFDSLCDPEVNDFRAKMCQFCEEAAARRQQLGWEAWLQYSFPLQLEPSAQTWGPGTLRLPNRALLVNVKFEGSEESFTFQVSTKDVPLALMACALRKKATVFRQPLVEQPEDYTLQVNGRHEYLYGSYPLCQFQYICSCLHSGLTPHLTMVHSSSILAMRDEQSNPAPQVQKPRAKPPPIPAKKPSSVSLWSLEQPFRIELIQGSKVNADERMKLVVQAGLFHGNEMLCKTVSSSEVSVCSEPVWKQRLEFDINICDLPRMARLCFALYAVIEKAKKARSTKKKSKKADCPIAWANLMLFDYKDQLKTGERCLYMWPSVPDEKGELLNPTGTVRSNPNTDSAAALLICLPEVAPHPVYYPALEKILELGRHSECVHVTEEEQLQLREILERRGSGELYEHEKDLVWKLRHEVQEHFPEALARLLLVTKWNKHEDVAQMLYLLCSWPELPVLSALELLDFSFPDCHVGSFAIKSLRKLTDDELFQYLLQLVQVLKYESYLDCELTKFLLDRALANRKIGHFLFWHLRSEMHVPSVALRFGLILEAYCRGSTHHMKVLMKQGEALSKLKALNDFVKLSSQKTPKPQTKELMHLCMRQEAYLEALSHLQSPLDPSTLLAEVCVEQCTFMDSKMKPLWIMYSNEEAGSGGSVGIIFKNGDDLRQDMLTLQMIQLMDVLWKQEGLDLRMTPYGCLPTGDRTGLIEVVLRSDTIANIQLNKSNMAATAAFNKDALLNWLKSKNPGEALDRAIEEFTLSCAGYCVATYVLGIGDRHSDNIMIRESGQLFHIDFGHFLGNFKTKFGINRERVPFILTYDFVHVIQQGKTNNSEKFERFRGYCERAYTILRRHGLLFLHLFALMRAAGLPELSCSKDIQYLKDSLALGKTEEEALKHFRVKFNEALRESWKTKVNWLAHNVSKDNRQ
T3 sequence (P27986 whole entry partner, species assumed): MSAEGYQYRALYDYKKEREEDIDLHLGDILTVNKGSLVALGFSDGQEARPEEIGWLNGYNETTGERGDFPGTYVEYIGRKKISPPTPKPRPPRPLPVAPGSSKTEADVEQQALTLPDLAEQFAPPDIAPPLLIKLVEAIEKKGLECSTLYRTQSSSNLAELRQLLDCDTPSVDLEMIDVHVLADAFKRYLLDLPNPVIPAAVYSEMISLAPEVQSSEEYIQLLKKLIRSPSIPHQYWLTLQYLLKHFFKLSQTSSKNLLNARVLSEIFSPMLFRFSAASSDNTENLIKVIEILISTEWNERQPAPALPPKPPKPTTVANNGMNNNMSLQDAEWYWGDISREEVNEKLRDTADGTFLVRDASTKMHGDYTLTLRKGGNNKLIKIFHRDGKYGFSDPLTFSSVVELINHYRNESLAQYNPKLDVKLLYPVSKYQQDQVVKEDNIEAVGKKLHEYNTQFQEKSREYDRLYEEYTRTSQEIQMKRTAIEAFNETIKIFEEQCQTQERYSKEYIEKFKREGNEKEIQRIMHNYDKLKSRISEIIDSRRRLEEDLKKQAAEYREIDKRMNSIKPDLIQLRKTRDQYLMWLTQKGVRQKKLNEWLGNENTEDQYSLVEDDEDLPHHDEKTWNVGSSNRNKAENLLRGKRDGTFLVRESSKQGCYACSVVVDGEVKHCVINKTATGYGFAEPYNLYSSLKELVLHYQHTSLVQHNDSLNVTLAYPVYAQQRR
T2 sequence (P42336 whole entry, species assumed): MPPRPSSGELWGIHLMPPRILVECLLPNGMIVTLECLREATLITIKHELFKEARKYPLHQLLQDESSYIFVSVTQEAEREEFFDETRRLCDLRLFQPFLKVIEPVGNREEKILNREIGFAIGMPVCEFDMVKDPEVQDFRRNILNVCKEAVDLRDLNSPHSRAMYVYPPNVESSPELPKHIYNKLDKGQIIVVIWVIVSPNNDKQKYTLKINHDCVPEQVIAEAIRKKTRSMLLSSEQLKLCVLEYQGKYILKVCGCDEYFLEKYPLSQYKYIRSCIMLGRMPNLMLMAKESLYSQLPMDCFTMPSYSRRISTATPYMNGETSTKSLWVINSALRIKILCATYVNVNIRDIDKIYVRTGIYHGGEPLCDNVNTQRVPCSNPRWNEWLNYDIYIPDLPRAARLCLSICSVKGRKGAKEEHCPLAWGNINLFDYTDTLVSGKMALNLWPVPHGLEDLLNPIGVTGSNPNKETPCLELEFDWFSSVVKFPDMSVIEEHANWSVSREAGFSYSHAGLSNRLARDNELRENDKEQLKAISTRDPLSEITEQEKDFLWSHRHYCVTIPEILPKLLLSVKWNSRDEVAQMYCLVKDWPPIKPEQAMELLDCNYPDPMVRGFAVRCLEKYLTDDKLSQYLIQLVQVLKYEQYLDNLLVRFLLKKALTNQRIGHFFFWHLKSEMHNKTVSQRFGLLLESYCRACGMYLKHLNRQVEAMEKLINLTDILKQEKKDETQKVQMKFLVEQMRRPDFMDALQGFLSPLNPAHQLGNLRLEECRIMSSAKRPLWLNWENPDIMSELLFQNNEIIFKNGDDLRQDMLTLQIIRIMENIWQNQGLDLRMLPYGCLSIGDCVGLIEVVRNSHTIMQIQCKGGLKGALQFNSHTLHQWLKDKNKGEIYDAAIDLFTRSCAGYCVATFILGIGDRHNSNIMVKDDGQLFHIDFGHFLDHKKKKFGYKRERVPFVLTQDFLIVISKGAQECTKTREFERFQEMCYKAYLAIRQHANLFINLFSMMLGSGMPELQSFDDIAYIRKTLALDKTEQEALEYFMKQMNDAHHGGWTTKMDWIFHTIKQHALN
T2 sequence (P27986 whole entry partner, species assumed): as the sequence (P27986 whole entry partner, species assumed) above
T1 sequence (P48736 whole entry, species assumed): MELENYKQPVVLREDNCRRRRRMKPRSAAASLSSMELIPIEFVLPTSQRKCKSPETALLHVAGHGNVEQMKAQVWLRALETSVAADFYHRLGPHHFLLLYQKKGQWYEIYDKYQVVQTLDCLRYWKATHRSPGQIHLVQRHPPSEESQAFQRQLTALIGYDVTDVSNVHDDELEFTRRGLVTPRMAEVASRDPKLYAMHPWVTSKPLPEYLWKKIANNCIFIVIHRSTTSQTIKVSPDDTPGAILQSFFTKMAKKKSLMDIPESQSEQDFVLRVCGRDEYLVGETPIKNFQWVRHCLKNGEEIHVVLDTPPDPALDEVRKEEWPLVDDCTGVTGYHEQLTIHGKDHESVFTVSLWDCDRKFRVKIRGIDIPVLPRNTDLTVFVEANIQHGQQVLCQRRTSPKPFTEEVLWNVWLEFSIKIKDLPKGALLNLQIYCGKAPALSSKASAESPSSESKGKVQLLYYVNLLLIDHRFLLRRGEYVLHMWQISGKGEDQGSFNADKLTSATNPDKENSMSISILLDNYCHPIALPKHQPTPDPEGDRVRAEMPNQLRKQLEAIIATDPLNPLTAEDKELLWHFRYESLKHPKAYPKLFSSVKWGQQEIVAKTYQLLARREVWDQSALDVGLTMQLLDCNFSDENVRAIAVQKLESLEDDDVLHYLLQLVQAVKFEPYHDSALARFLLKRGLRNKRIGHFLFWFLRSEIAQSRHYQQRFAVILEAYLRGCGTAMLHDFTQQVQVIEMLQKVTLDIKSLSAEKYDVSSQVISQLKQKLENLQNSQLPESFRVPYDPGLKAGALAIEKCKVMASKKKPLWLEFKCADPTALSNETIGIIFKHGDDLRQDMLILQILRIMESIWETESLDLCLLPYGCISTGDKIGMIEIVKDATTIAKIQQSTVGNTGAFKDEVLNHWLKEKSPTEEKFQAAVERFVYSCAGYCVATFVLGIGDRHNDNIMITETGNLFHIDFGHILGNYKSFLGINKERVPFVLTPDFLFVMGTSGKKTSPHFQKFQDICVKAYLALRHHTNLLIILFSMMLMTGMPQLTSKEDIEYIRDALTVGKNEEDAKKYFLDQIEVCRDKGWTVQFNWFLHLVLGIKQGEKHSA
p110β, sequence (P42338 whole entry, species assumed): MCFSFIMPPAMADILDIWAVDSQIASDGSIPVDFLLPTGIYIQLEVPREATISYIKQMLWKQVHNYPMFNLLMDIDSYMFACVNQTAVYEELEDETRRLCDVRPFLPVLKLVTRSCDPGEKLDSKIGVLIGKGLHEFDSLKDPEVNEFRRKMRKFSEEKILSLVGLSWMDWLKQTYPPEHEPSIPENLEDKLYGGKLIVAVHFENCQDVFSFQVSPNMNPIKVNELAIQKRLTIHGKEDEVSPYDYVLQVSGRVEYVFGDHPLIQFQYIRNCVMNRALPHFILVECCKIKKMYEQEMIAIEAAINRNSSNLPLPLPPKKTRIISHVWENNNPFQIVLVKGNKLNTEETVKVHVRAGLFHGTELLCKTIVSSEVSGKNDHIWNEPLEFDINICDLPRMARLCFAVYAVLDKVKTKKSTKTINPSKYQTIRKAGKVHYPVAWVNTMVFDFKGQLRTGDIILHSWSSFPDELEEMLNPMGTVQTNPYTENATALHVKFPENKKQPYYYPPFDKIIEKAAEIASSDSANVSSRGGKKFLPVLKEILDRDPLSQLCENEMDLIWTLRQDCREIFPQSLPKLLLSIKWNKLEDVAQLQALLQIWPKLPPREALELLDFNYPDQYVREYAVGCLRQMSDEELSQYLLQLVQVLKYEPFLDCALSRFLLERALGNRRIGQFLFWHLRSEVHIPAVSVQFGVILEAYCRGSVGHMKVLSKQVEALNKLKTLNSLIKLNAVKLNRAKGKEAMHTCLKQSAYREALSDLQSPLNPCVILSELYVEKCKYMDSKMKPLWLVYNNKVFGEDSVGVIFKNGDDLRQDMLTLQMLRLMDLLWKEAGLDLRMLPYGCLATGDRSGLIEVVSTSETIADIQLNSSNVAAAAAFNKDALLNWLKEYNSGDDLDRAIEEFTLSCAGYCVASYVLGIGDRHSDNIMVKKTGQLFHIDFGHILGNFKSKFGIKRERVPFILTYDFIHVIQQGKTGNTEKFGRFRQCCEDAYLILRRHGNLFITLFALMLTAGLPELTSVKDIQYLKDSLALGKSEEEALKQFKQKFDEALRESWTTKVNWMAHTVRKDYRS
p110β, sequence (P27986 whole entry partner, species assumed): as the sequence (P27986 whole entry partner, species assumed) above

O=c1cc(N2CCOCC2)oc2c(-c3ccccc3)cccc12 [LY294002]
Effect on rhGM-CSF-mediated human neutrophil survival (Human neutrophils [1]; inhibitor 10 µM): prevented rhGM-CSF-mediated human neutrophil survival | Effect on GM-CSF-induced PKB phosphorylation [2]: abolished | Vacuole formation or necrosis in murine neutrophils [3]: nor did it induce vacuole formation or necrosis | Concentration giving maximal effect on rmGM-CSF survival effect [3, 15]: 10 µM | Effect on rmGM-CSF cytoprotective (survival) effect in murine neutrophils [3, 15]: abrogated the rmGM-CSF cytoprotective effect | Effect on constitutive murine neutrophil apoptosis [3]: had no effect on the rate of constitutive murine neutrophil apoptosis | Effect on constitutive human neutrophil apoptosis (Human neutrophils [4]): without affecting the extent of constitutive neutrophil apoptosis | Effect on reduced spontaneous apoptosis of neutrophils from exacerbating COPD patients [5]: failed to restore the ability of exacerbating patient-derived neutrophils to undergo apoptosis in a timely fashion | Cytoplasmic vacuolation of human neutrophils (Human neutrophils [6]): not apparent

Cc1cc(NC(=O)CCNC(=O)Nc2nc(C)c(-c3ccc(-n4cccn4)cc3)s2)no1 [NVS-PI3-3]
Effect on rhGM-CSF-mediated human neutrophil survival (Human neutrophils [1]; inhibitor 1 µM, used individually): failed to affect GM-CSF-mediated survival | IC50 (p110γ [7]): 310 nM | IC50 (Human neutrophils [8]; TNFα 10 ng/ml-primed human neutrophils, read-out: Primed IC50, neutrophil oxidative burst): 525 nM | IC50 (Human neutrophils [8]; unprimed human neutrophils, read-out: Unprimed IC50, neutrophil oxidative burst): 44 nM | IC50 (p110α [9]): 180 nM | IC50 (p110δ [10]): 3 nM | IC50 (p110β): 600 nM

Oc1cccc(-c2nc(N3CCOCC3)c3oc4ncccc4c3n2)c1 [PI-103]
Cell accessibility [11]: PI-103 (pan class I) ^* | Effect on rhGM-CSF-mediated human neutrophil survival (Human neutrophils [1]; inhibitor 10 µM): did indeed appear to inhibit the effects of rhGM-CSF on neutrophil apoptosis | Effect on GM-CSF-induced PKB phosphorylation [2]: abolished | Vacuole formation or necrosis in murine neutrophils [3]: did not exhibit significant vacuolation | Concentration giving maximal effect on rmGM-CSF survival effect [3, 15]: 3 µM | Effect on rmGM-CSF cytoprotective (survival) effect in murine neutrophils [3, 15]: blocked the rmGM-CSF survival effect | Effect on rmGM-CSF-induced survival, wild type neutrophils ([3]; PI-103 0.3 µM, C57BL/6, rmGM-CSF 0.1 ng/ml, 8 hours): had no effect on rmGM-CSF-induced survival of wild type neutrophils | Effect on rmGM-CSF-induced survival, p110γKO and p110δKOγKO neutrophils ([3]; PI-103 0.3 µM, rmGM-CSF 0.1 ng/ml, 8 hours): attenuated the rmGM-CSF survival effect | Effect on constitutive murine neutrophil apoptosis [3]: did not affect constitutive apoptosis | Morphological assessment of apoptosis in neutrophils treated with rhGM-CSF and inhibitor (Human neutrophils [6]; PI-103 10 µM): did not reveal classical apoptotic morphology | Cytoplasmic vacuolation of human neutrophils (Human neutrophils [6]): extensive cytoplasmic vacuolation was seen | IC50 against all PI3K Class I isoforms (PI3K Class I isoforms): submicromolar range

Cc1cc(C(C)Nc2ccccc2)c2nc(N3CCOCC3)cc(=O)n2c1 (centres unmarked) [TGX-221]
Effect on rhGM-CSF-mediated human neutrophil survival (Human neutrophils [1]; inhibitor 10 µM): failed to abrogate GM-CSF mediated survival | IC50 (p110γ [12]): 3500 nM | IC50 (p110δ [13]): 100 nM | IC50 (p110α [14]): 5000 nM
